Read-outs that look alike come from different tables or passages of the source.
Experiments:
[1] = molecular target: recombinant GluN1/GluN2B receptors; design: method as in PMID 22197913; details: recombinant GluN1/GluN2B in X. laevis oocytes, electrophysiology; cited from earlier work
[2] = molecular target: native GluN2B‐containing NMDA receptors (Gallus gallus, UniProt F1NMB0+Q4KXT1); assay: Calcium influx measurement (Fura-2) in E10 chicken embryo forebrain cell culture at DIV1, induced with NMDA and glycine; format: cell-based, chicken (Gallus gallus); details: for EC50: primary cultures from chicken embryo forebrain (E10), read-out: EC50, inhibition of calcium influx; for Emax: read-out: calcium influx blocked
Procedure: The eggs were submerged in crushed ice for 7 minutes to anesthetize the embryos before decapitation. The forebrain was surgically removed, and the meninges were discarded. The tissue was homogenized by chopping with a scalpel before trypsination in buffered solutions as previously described.30, 31 Cells were suspended in DMEM supplemented with 1% N‐2, 100 U/mL penicillin and 0.1 mg/mL streptomycin (Pen‐Strep), 10% fetal bovine serum (FBS), and 0.75% GlutaMAX™. Cells were seeded (1.7 × 10^6 cells/mL) on 35 mm Petri dishes or in 96‐well plates (Corning® CellBIND® 96 well plates; Merck) precoated with poly‐L‐lysine, and incubated at 37°C, with 5% CO2. These cultures contain an abundance of functional GluN2B receptors on DIV1 (A. Ring, pers. commun.).
Fura‐2 fluorescence was measured using CLARIOstar® plate reader (BMG Labtech, Germany). Intracellular Ca^2+ changes were expressed as changes in 340/380 nm fluorescence emission ratio. The wash buffer was then carefully replaced with test compound (20 nmol/L to 10 μmol/L) in standard buffer (n = 4 per concentration, two compounds per 96‐well plate). NMDA receptor‐mediated Ca^2+ influx was induced by NMDA (0.2 mmol/L) and glycine (0.1 mmol/L) in each well. The resulting rise in intracellular Ca^2+ was expressed as a change in the 340/380 emission ratio by subtracting the initial Ca^2+ level from the NMDA stimulated Ca^2+ responses. […] Inhibition curves for each compound were established by dose response experiments (n ≥ 5). For Ro 04‐5595, four representative IC50 values were chosen to make Figure 2A, while 13 experiments around the median were chosen for Figure 2C.

[3] = molecular target: recombinant GluN1/GluN2B receptors; details: recombinant GluN1/GluN2B in X. laevis oocytes, electrophysiology; cited from earlier work
[4] = E10 chicken forebrain cell culture at DIV 1, NMDA 200 and glycine 100 μmol/L, Fura-2, read-out: IC50 Chicken (present work)
[5] = maximal block by GluN2B-specific allosteric antagonists, chicken forebrain culture

Sequence of native GluN2B‐containing NMDA receptors (F1NMB0 entry or part of it, other chains not shown): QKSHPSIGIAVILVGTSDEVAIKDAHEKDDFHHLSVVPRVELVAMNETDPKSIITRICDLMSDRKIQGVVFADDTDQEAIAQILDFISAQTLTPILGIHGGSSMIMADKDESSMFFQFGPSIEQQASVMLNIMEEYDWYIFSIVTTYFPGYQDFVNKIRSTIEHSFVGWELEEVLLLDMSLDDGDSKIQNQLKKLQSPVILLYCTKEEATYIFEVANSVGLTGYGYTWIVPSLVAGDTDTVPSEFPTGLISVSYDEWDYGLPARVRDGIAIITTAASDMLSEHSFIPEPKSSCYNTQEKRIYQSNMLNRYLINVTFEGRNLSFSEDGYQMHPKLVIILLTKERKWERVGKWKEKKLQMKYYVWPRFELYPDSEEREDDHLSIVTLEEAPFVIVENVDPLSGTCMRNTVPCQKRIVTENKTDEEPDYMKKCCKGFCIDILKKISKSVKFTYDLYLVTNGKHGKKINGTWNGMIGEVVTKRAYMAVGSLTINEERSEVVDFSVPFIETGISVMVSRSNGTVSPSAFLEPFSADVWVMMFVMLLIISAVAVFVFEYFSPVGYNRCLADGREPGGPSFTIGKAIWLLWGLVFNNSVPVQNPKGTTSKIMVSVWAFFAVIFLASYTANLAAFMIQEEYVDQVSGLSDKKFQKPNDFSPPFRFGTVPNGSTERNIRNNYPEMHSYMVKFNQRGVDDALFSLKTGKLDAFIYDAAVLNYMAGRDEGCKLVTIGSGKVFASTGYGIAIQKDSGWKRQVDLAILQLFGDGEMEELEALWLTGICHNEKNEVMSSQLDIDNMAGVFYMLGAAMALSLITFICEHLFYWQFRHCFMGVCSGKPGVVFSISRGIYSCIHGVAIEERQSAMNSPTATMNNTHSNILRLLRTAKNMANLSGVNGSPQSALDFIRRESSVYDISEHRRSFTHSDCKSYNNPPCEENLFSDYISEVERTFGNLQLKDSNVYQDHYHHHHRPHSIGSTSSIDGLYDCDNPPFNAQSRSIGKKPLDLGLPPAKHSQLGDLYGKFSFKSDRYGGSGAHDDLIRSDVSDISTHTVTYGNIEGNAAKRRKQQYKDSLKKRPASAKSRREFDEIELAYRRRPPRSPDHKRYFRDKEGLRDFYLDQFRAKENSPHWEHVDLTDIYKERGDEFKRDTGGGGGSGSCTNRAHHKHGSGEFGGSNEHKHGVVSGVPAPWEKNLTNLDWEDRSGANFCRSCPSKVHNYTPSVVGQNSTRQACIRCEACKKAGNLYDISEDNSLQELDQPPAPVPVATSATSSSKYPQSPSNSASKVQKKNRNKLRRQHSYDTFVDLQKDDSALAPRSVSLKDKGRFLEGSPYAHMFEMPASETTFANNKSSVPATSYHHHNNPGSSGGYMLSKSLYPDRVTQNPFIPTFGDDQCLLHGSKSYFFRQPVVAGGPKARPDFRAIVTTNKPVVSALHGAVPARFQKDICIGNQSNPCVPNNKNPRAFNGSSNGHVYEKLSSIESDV

In the case of `C[C@@H]([C@H](O)c1ccc(O)cc1)N1CCC(Cc2ccccc2)CC1` [Ro 25‐6981], the IC50 [1] is listed as 49 ± 8 nM, the IC50 [2, 4] is listed as 60 ± 27 nM and the calcium influx blocked [2, 5] is listed as “approximately 70%”. For the same molecule, the EC50 [2] was 60 ± 30 nM and the IC50 [3] was 42 ± 6 nM.
In the case of `CC(C(O)c1ccc(O)cc1)N1CCC(Cc2ccccc2)CC1` (stereo not shown) [Ifenprodil, ifenprodil], the IC50 [1] is listed as 130 ± 10 nM, the IC50 [2, 4] is listed as 103 ± 39 nM and the EC50 [2] is listed as 100 ± 40 nM. For the same molecule, the Emax [2] was ~70% and the IC50 [3] was 110 ± 10 nM.
With `COc1cc2c(cc1O)C(CCc1ccc(Cl)cc1)N(C)CC2` (stereo not shown) [Ro 04‐5595] the IC50 [2, 4] was 186 ± 35 nM, the IC50 ([2]; chicken forebrain culture calcium influx assay, read-out: IC50 value) was < 200 nM and the EC50 [2] was 186 ± 32 nM.
For `Cc1nccn1Cc1cc(-c2ccc(F)c(C(F)F)c2)cnn1.Cl.Cl` [EVT‐101], the IC50 [2, 4] was 22 ± 8 nM, the calcium influx blocked [2, 5] was “approximately 70%” and the EC50 [2] was 22 ± 8 nM. The IC50 [3] was 12 ± 0.2 nM.
In the case of `OC(CN1CCC(Cc2ccc(F)cc2)CC1)c1ccc(Cl)cc1` (stereo not shown) [Eliprodil, eliprodil], the IC50 [1] is given as 930 ± 140 nM, the IC50 [2, 4] is given as 1260 ± 683 nM and the Emax [2, 5] is given as ~70%. The EC50 [2] was 1300 ± 700 nM and the IC50 [3] was 780 ± 90 nM.
